Experimental findings from ChEMBL document CHEMBL1201862, “PubChem BioAssay data set” (2004) are described below.

Experiment in all cases: DTP human tumour cell line panel, 48 h
Experiment [1] relates to SK-MEL-2.
Experiment [2] has as its system UO-31.
The test system of experiment [3] is DU-145.
Experiment [4] deals with NCI-H460.
The test system of experiment [5] is SN12C.
Experiment [6] deals with SK-MEL-28.
Experiment [7] concerns A498.
The subject of experiment [8] is NCI/ADR-RES.
Experiment [9] has as its system HOP-62.
Experiment [10] relates to PC-3.
Experiment [11] concerns HCT-15.
Experiment [12] deals with SF-268.
Experiment [13] deals with A549.
Experiment [14] deals with NCI-H522.
Experiment [15] relates to SK-OV-3.
In experiment [16] the test system is OVCAR-5.
In experiment [17] the test system is MDA-MB-435.
The subject of experiment [18] is UACC-62.
Experiment [19] relates to MOLT-4.
Experiment [20] concerns HOP-92.

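Compound exposure: 48 hours, 5 concentrations, 96-well plates. The concentration for 50% growth inhibition is given as GI50.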 The source made the active and inactive calls. Cut-off read from the data, not from the text of the source: active = GI50 up to about 1.1 µM and inactive = higher.

As for `c1ccc([P+](CCN2Cc3ccccc3C2)(c2ccccc2)c2ccccc2)cc1`, the GI50 is 2.27 µM (inactive) in [1]; 12.1 µM (inactive) in [2]; 5.87 µM (inactive) in experiment [3]; 5.79 µM (inactive) in [4]; 4.56 µM (inactive) in experiment [5]; 2.74 µM (inactive) in [6]. Moreover, the GI50 in experiment [7] is 18 µM (inactive); in experiment [8], 69.5 µM (inactive); in experiment [9], 8.67 µM (inactive); in experiment [10] it was 4.8 µM (inactive); in [11] it was 12.7 µM; in [12], 5.77 µM (inactive). Further, the GI50 in experiment [13] is 4.99 µM (inactive); in experiment [14], 2.73 µM (inactive); in experiment [15], 20.7 µM (inactive); in [16] it was 16.6 µM (inactive); in [17], 3.58 µM (inactive); in experiment [18], 2.85 µM (inactive). The GI50 in experiment [19] is 6.44 µM (inactive); in experiment [20] it was 1.08 µM (active).
As for `CSc1nc(SC)c2c(C)cn(C3OC(C)C(O)C(O)C3O)c2n1` (stereo not given), the GI50 is 73.5 µM (inactive) in experiment [1]; 36.3 µM (inactive) in experiment [2]; 62.5 µM (inactive) in experiment [3]; 43.1 µM (inactive) in experiment [4]; > 100 µM (inactive) in experiment [5]; 84.3 µM (inactive) in experiment [6]. Further, the GI50 in experiment [7] is 27.9 µM (inactive); in experiment [8] it was 67.3 µM (inactive); in [9], > 100 µM (inactive); in [10], 43.9 µM (inactive); in experiment [11], 74.1 µM; in experiment [12] it was 95.7 µM (inactive). Further, the GI50 was 74.5 µM (inactive) in [13]; 96.2 µM (inactive) in experiment [14]; > 100 µM (inactive) in [15]; > 100 µM (inactive) in experiment [16]; 40 µM (inactive) in experiment [17]; 76.6 µM (inactive) in experiment [18]. For the same compound, the results for the GI50 in experiment [19] and in experiment [20] were 39.3 µM (inactive) and 32.6 µM (inactive), respectively.
